Reference: patent US9290463B2, “Radiolabeled compounds and uses thereof” (THE TRUSTEES OF COLUMBIA UNIVERSITY IN THE CITY OF NEW YORK, priority 2010, dated 2016)

Tests used:
5-HT1AR = 5-HT1AR (Rattus norvegicus (Rat), UniProt P19327); assay: Endogenous changes of 5-HT measured with Compound E uptake and binding in pretreated rats; assay type: in vivo; conditions: for SBR (specific binding ratio) of Compound E, change versus saline / SUV of Compound E, change versus saline: hippocampus, 90 min after Compound E i.v., pretreated rats
Sequence of 5-HT1AR (P19327 whole entry): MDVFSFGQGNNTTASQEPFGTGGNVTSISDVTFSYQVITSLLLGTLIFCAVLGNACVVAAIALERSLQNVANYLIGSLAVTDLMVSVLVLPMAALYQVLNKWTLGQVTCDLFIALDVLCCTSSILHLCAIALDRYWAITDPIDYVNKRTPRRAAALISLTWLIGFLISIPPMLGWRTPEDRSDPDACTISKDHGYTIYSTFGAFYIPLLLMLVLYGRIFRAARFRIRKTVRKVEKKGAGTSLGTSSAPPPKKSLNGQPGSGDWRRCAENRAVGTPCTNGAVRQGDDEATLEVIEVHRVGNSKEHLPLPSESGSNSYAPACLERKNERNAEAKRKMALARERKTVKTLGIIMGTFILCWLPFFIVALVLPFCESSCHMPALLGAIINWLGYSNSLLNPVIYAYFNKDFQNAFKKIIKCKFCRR
Experimental: Endogenous changes of 5-HT measurement with Compound E: Rats were pretreated according to the group below, injected with 0.1 MBq (0.18±0.02 nmol/kg, i.v.) of Compound E, then killed by decapitation after 90 minutes. Blood was collected from the trunk, the brain was extracted and the striatum, hippocampus, frontal cortex and cerebellum were dissected. Brain regions were dissolved, plasma was separated from the blood and radioactivity concentrations were determined.
The uptake and binding of Compound E after injection differed by treatment condition. […] Changes in the specific binding ratio (SBR=(activity in ROI−activity in Cerebellum)/activity in Cerebellum) were significant in Fenfluramine 1 and 2.

5-HT1A = 5-HT1A (Rattus norvegicus (Rat), UniProt P19327); assay: Ex vivo saturation binding of Compound E in rat brain regions; conditions: hippocampus and frontal cortex, rats 90 min after i.v. injection, one binding-site model
Sequence of 5-HT1A (P19327 whole entry): as above
Experimental: Ex vivo studies of compound E: Awake rats were injected in the tail vein with Compound E shown below:
Total mass injected was between 0.02 nmol/kg and 500 nmol/kg. All rats were decapitated after 90 minutes, based on time activity experiments with Compound E. The brains were extracted and brain regions were dissected, and then dissolved in Solvable (Packard). Blood was collected, and the plasma was separated. Radioactivity concentrations were determined by scintillation counting.
It was possible to saturate the 5-HT1A binding of Compound E in the frontal cortex and hippocampus. Data were best fitted with a one binding-site model. […] The cerebellum and plasma were unsaturable and no binding model could be fitted to the data.

human 5-HT1A receptor = human 5-HT1A receptor (Homo sapiens (Human), UniProt P08908); assay: Inhibition of [3H]-8-OH-DPAT binding in membranes from CHO-h5-HT1A cells; conditions: 5 nM [3H]-8-OH-DPAT, read-out: Binding affinity value (Ki)
Sequence of human 5-HT1A receptor (P08908 whole entry): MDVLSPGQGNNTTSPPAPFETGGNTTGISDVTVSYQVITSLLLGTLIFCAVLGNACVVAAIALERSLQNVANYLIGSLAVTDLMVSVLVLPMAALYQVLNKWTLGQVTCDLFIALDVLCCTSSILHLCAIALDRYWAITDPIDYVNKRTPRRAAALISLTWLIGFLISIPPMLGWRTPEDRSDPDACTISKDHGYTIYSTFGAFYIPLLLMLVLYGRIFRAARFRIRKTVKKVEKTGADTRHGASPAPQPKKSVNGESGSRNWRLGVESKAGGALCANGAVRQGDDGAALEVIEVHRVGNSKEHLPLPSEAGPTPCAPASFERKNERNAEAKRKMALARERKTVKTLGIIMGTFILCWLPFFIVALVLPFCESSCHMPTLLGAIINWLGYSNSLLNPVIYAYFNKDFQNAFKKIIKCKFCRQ
Experimental: In Vitro Agonist Binding Assay.
Preparation of Membrane Fractions from CHO-h5-HT1A Cells. Membranes from CHO cells stably expressing the human 5-HT1A receptor at a density of 8 pmol/mg membrane protein with 5-HT2c receptor background were prepared. Cells were grown in DMEM/F-12 medium supplemented with 5% fatal bovine serum, 50 ig/mL geneticin, and 50 ig/mL hygromycin B in a humidified atmosphere of 5% CO2 until they reached confluence. Cells were harvested by centrifugation (800 g for 5 min) and homogenized using a polytron homogenizer (Polytron, CH-6010 Kreiens-Lu, Brinkman Instrument, Westbury, N.Y.) in buffer containing 20 mM HEPES, pH7.4, 3 mM MgCl2, and a cocktail of protease inhibitors (Sigma-Aldrich, St. Louis, Mo.) at 1:2000 dilution. The homogenate was centrifuged (Beckman Optima LE80K Ultracentrifuge) at 100 000 g for 15 min at 4° C. The pellet was suspended in the same buffer and recentrifuged. The final pellet was suspended in assay buffer containing 20 mM HEPES, pH 7.4, 3 mM MgCl2, 100 mM NaCl, and a mixture of protease inhibitors and stored at −70° C. Protein concentration was determined by detergent compatible colorimetric assay using DC Protein Assay Reagents as recommended by the manufacturer (Bio-Rad, Hercules, Calif.).
Inhibition of [^3H]-8-OH-DPAT Binding by A-D or 5-HT in Membranes. For inhibition experiments, the incubation medium consisted of 20 mM HEPES, pH 7.4, 4 mM CaCl2, 5 nM [^3H]-8-OH-DPAT, and 30 μg of membrane protein in the presence of different concentrations of […] or 5-HT. The assay mixture was incubated for 10 min at 30° C. The reaction was terminated by rapid filtration through Whatman GF/B filters followed by three washes with ice cold 20 mM HEPES buffer, pH 7.4, using a cell harvester (Brandel, M-24R Gaitherburg, Md.). Bound radioactivity was determined by liquid scintillation spectrometry (Beckman).

| Molecule | SBR (specific binding ratio) of Compound E, change versus saline (5-HT1AR) | SUV of Compound E, change versus saline (5-HT1AR) | Change in uptake of Compound E by treatment condition (5-HT1AR; in words) | Ki (human 5-HT1A receptor) [nM] | also measured |
| --- | --- | --- | --- | --- | --- |
| Isoflurane [Isoflurane, 1-3% (Inhaled) + Saline] | −4.6% | +52.1% | Significant changes in uptake |  |  |
| CCNC(C)Cc1cccc(C(F)(F)F)c1 (centres unmarked) [Fenfluramine] | +32.8% | −0.1% | Significant changes in uptake |  | Change in specific binding ratio of Compound E by treatment condition (5-HT1AR; in words): significant |
| [3H]COc1ccccc1N1CCN(CCCCn2ncc(=O)n(C)c2=O)CC1 [Compound E] |  |  |  |  | Kd (5-HT1A): 17 to 18 nM |
| CN(C)CCCC1(c2ccc(F)cc2)OCc2cc(C#N)ccc21 (centres unmarked) [Citalopram] | −12.2% | +4.8% |  |  |  |
| Cn1c(=O)cnn(CCCCN2CCN(c3cccc(Br)n3)CC2)c1=O |  |  |  | 4 |  |
| NC(Cc1ccc(Cl)cc1)C(=O)O (centres unmarked) [Single Housed + pCPA, pCPA] | −15.1% | −14.1% | Significant changes in uptake |  |  |
| Cn1c(=O)cnn(CCCCN2CCN(c3ccccc3Br)CC2)c1=O |  |  |  | 6 |  |
| Cn1c(=O)cnn(CCCCN2CCN(c3cccc(I)n3)CC2)c1=O |  |  |  | 5.5 |  |
| [3H]COc1ccccc1N1CCN(CCCCn2ncc(=O)n(C)c2=O)CC1 [drawing 34] |  |  |  | 0.15 |  |
